We go through 1 molecule from US20250099364A1, “METHOD AND COMPOSITIONS FOR COSMETIC COMPOSITIONS” (MARY KAY INC., priority 2023, published 2025).

Common to all, as to assay type: cell-based
The test system of assay [1] is collagen production in fibroblasts. Kind of assay: Collagen production in fibroblasts treated with oxytocin. The following applies: 72 hours. Here is the method: FIG. 2. Fibroblasts were treated with oxytocin for 72 hours.
In assay [2] the test system is elastin production in fibroblasts. Kind of assay: Elastin production in fibroblasts treated with oxytocin. The following applies: 72 hours. Here is the method:
FIG. 3. Fibroblasts were treated with oxytocin for 72 hours.

The test system of assay [3] is IL-15 production in keratinocytes. Put plainly: IL-15 production in keratinocytes treated with oxytocin. The following applies: 24 hours. As for the experimental part: FIG. 4. Keratinocytes were treated with oxytocin for 24 hours.

For `CC[C@H](C)[C@@H]1NC(=O)[C@H](Cc2ccc(O)cc2)NC(=O)[C@@H](N)CSSC[C@@H](C(=O)N2CCC[C@H]2C(=O)N[C@@H](CC(C)C)C(=O)NCC(N)=O)NC(=O)[C@H](CC(N)=O)NC(=O)[C@H](CCC(N)=O)NC1=O` [oxytocin], the “increase in collagen production compared to untreated control” value in assay [1] (25 μg/mL oxytocin) was “+109%”; in assay [1] (100 μg/mL oxytocin), “+117%”. In addition, the “increase in elastin production compared to untreated control” value is “+166%” in assay [2] (25 ng/mL oxytocin), “+127%” in assay [2] (100 ng/mL oxytocin), “+133%” in assay [2] (25 μg/mL oxytocin) and “+117%” in assay [2] (100 μg/mL oxytocin). Moreover, the “increase in IL-15 production compared to untreated control” value is “+50%” in assay [3] (25 ng/mL oxytocin); “+90%” in assay [3] (100 ng/mL oxytocin); “+121%” in assay [3] (5 μg/mL oxytocin); “+165%” in assay [3] (25 μg/mL oxytocin); “+331%” in assay [3] (100 μg/mL oxytocin).
